According to patent US12290596B2, “Compositions and methods for the treatment of opioid overdose” (priority 2021, dated 2025):

Experiments:
[1] = Safety and tolerability of IN nalmefene, adverse events (Example 13); format: in vivo, human (healthy volunteers)
Description: Safety: The Investigator evaluated safety using the following assessments: reported or observed AEs, clinical laboratory evaluations, vital sign measurements, physical examinations, ECGs (including telemetry), nasal irritation determined from nasal passage examinations, and NRS to determine acute nasal pain.

[2] = Example 14 safety: adverse events; conditions: Part 2
[3] = Two-period crossover pharmacokinetics of nalmefene 3 mg IN vs 1.0 mg IM (Example 12); conditions: for AUC(0-t) / AUC(0-inf): human, im, 1 mg; for AUC(0-inf): AUCinf
[4] = Treatment B (6 mg, 1 spray in each nostril)
[5] = Treatment C (6 mg, 2 sprays in 1 nostril)
[6] = Treatment A: 3.0 mg nalmefene hydrochloride IN, plasma, Max, n 66
[7] = Treatment A: 3.0 mg nalmefene hydrochloride IN, plasma, Min, n 66
[8] = Treatment B: 1.0 mg nalmefene IM (gluteal muscle), plasma, Max, n 68
[9] = Treatment B: 1.0 mg nalmefene IM (gluteal muscle), plasma, Min, n 68
[10] = Treatment B: IM 1.0 mg nalmefene hydrochloride, plasma, Geo. Mean, n=68
[11] = Treatment B: IM 1.0 mg nalmefene hydrochloride, plasma, Max, n=68
[12] = Treatment B: IM 1.0 mg nalmefene hydrochloride, plasma, Mean, n=68
[13] = Treatment B: IM 1.0 mg nalmefene hydrochloride, plasma, Median, n=68
[14] = Treatment B: IM 1.0 mg nalmefene hydrochloride, plasma, Min, n=68

Compound: C=C1CC[C@@]2(O)[C@H]3Cc4ccc(O)c5c4[C@@]2(CCN3CC2CC2)[C@H]1O5 [Nalmefene, 17-cyclopropylmethyl-4,5α-epoxy-6-methylenemorphinan-3,14-diol]
- Tolerability ([1]; 3 mg and 6 mg dose, fasted healthy subjects): well-tolerated
- Nasal congestion, instances ([1]; Treatment A): 1
- Nasal discomfort, instances ([1]; Treatment A): 1
- Nausea, instances ([1]; Treatment A): 1
- Number of AEs reported ([1]; Treatment A (3 mg)): 20
- Subjects reporting AEs ([1]; Treatment A (3 mg)): 43.5%
- Nasal congestion, instances ([1]; Treatment B): 2
- Nausea, instances ([1]; Treatment B): 5
- Number of AEs reported [1, 4]: 24
- Subjects reporting AEs [1, 4]: 60.9%
- Nasal congestion, instances ([1]; Treatment C): 4
- Nasal discomfort, instances ([1]; Treatment C): 3
- Nausea, instances ([1]; Treatment C): 1
- Number of AEs reported [1, 5]: 24
- Subjects reporting AEs [1, 5]: 58.3%
- Serious AEs or AEs leading to withdrawal or death ([1]; all treatments): no serious AEs
- Severity of TEAEs ([1]; all treatments): mild
- Number of TEAEs [2]: 172
- Subjects reporting Grade 1 severity TEAEs [2]: 68.9%
- Subjects reporting Grade 2 severity TEAEs [2]: 23.0%
- Subjects reporting TEAEs [2]: 91.8%
- Subjects reporting headache [2]: 59.0%
- Subjects who discontinued the study drug due to an AE [2]: 6.6%
- Plasma concentrations compared to an intramuscular injection ([3]; 3 mg IN vs 1.0 mg IM, p<0.0001): significantly higher plasma concentrations
- AUC0-5 min [3, 6]: 0.588 ng·h/mL
- AUC0-10 min [3, 6]: 2.78 ng·h/mL
- AUC0-15 min [3, 6]: 5.03 ng·h/mL
- AUC0-20 min [3, 6]: 6.79 ng·h/mL
- AUC0-30 min [3, 6]: 9.16 ng·h/mL
- AUC0-[…] [3, 6]: 0.155 ng·h/mL
- AUC0-10 min [3, 7]: 0.0815 ng·h/mL
- AUC0-15 min [3, 7]: 0.196 ng·h/mL
- AUC0-30 min [3, 7]: 0.802 ng·h/mL
- AUC0-10 min [3, 8]: 0.631 ng·h/mL
- AUC0-15 min [3, 8]: 1.05 ng·h/mL
- AUC0-20 min [3, 8]: 1.33 ng·h/mL
- AUC0-30 min [3, 8]: 1.77 ng·h/mL
- AUC0-[…] [3, 8]: 0.0249 ng·h/mL
- AUC0-15 min [3, 9]: 0.0218 ng·h/mL
- AUC0-20 min [3, 9]: 0.0402 ng·h/mL
- AUC0-30 min [3, 9]: 0.0845 ng·h/mL
- AUCExtrap [3, 10]: 3.94%
- CL/F [3, 10]: 59.6 L/h
- Kel [3, 10]: 0.0667 h⁻¹
- Tlast [3, 10]: 48.0 h
- AUCExtrap [3, 11]: 13.3%
- AUClast [3, 11]: 24.2 ng·h/mL
- CL/F [3, 11]: 91.8 L/h
- Kel [3, 11]: 0.0968 h⁻¹
- AUCExtrap [3, 12]: 4.50%
- CL/F [3, 12]: 60.7 L/h
- Kel [3, 12]: 0.0677 h⁻¹
- Tlast [3, 12]: 48.0 h
- AUCExtrap [3, 13]: 3.86%
- CL/F [3, 13]: 58.7 L/h
- Kel [3, 13]: 0.0695 h⁻¹
- Tlast [3, 13]: 48.0 h
- AUCExtrap [3, 14]: 1.13%
- AUClast [3, 14]: 10.5 ng·h/mL
- CL/F [3, 14]: 40.0 L/h
- Kel [3, 14]: 0.0394 h⁻¹
- Tlast [3, 14]: 48.0 h
- AUC(0-t) ([3]; plasma, AUC0-5 min, GeoMean, Treatment B 1.0 mg IM (Ref)): 0.01 ng·h/mL
- AUC(0-t) ([3]; plasma, AUC0-5 min, Treatment B: 1.0 mg nalmefene IM (gluteal muscle), plasma, Geo. Mean, n 68): 0.0102 ng·h/mL
- AUC(0-t) ([3]; plasma, AUC0-5 min, Treatment B: 1.0 mg nalmefene IM (gluteal muscle), plasma, Mean, n 68): 0.0181 ng·h/mL
- AUC(0-t) ([3]; plasma, AUC0-10 min, GeoMean, Treatment B 1.0 mg IM (Ref)): 0.064 ng·h/mL
- AUC(0-t) ([3]; plasma, AUC0-10 min, Treatment B: 1.0 mg nalmefene IM (gluteal muscle), plasma, Geo. Mean, n 68): 0.0639 ng·h/mL
- AUC(0-t) ([3]; plasma, AUC0-10 min, Treatment B: 1.0 mg nalmefene IM (gluteal muscle), plasma, Mean, n 68): 0.0994 ng·h/mL
- AUC(0-t) ([3]; plasma, AUC0-10 min, Treatment B: 1.0 mg nalmefene IM (gluteal muscle), plasma, Median, n 68): 0.0583 ng·h/mL
- AUC(0-t) ([3]; plasma, AUC0-15 min, GeoMean, Treatment B 1.0 mg IM (Ref)): 0.142 ng·h/mL
- AUC(0-t) ([3]; plasma, AUC0-15 min, Treatment B: 1.0 mg nalmefene IM (gluteal muscle), plasma, Geo. Mean, n 68): 0.142 ng·h/mL
- AUC(0-t) ([3]; plasma, AUC0-15 min, Treatment B: 1.0 mg nalmefene IM (gluteal muscle), plasma, Mean, n 68): 0.2 ng·h/mL
- AUC(0-t) ([3]; plasma, AUC0-15 min, Treatment B: 1.0 mg nalmefene IM (gluteal muscle), plasma, Median, n 68): 0.143 ng·h/mL
- AUC(0-t) ([3]; plasma, AUC0-20 min, GeoMean, Treatment B 1.0 mg IM (Ref)): 0.228 ng·h/mL
- AUC(0-t) ([3]; plasma, AUC0-20 min, Treatment B: 1.0 mg nalmefene IM (gluteal muscle), plasma, Geo. Mean, n 68): 0.228 ng·h/mL
- AUC(0-t) ([3]; plasma, AUC0-20 min, Treatment B: 1.0 mg nalmefene IM (gluteal muscle), plasma, Mean, n 68): 0.299 ng·h/mL
- AUC(0-t) ([3]; plasma, AUC0-20 min, Treatment B: 1.0 mg nalmefene IM (gluteal muscle), plasma, Median, n 68): 0.228 ng·h/mL
- AUC(0-t) ([3]; plasma, AUC0-30 min, GeoMean, Treatment B 1.0 mg IM (Ref)): 0.405 ng·h/mL
- AUC(0-t) ([3]; plasma, AUC0-30 min, Treatment B: 1.0 mg nalmefene IM (gluteal muscle), plasma, Geo. Mean, n 68): 0.405 ng·h/mL
- AUC(0-t) ([3]; plasma, AUC0-30 min, Treatment B: 1.0 mg nalmefene IM (gluteal muscle), plasma, Mean, n 68): 0.491 ng·h/mL
- AUC(0-t) ([3]; plasma, AUC0-30 min, Treatment B: 1.0 mg nalmefene IM (gluteal muscle), plasma, Median, n 68): 0.389 ng·h/mL
- AUC(0-t) ([3]; plasma, AUCLast, GeoMean, Treatment B 1.0 mg IM (Ref)): 16 ng·h/mL
- AUC(0-inf) ([3]; plasma, GeoMean, Treatment B 1.0 mg IM (Ref)): 16.8 ng·h/mL
- AUC(0-inf) ([3]; plasma, Treatment B: IM 1.0 mg nalmefene hydrochloride, plasma, Geo. Mean, n=68): 16.8 ng·h/mL
- AUC(0-inf) ([3]; plasma, Treatment B: IM 1.0 mg nalmefene hydrochloride, plasma, Median, n=68): 17 ng·h/mL
- AUC(0-t) ([3]; plasma, AUClast, Treatment B: IM 1.0 mg nalmefene hydrochloride, plasma, Geo. Mean, n=68): 16 ng·h/mL
